Measurements reported in US20050014681A1, “Medicinal compositions for nasal absorption” (priority 2001, published 2005).

Tests used:
blood glucose level = assay: Blood glucose level decreasing effect of nasally administered incretin hormones in glucose-loaded rats; format: in vivo; conditions: nasal powder about 100 μg polypeptide, 15 min after dosing, 10 min after 0.5 g/kg i.v. glucose, control 196
Procedure: As for the composition containing incretin hormones, the blood glucose level fell as compared with the control group. Moreover, also the incretin hormones, the blood glucose level fell when composition containing 5% corn starch is added compared with when 5% corn starch is not added.

[1] = background statement; cited from earlier work
[2] = Absorbability of powder preparation for nasal administration using cynomolgus monkeys, Test-1 (RIA); conditions: cynomolgus monkey, in vivo, sc, 13 ug/kg
Procedure: (§1) An anti-rabbit IgG goat serum was then added, and the mixture was allowed to stand for 1 hour at 4° C. The resulting sample was centrifuged and the radioactivity (gamma-ray) of the precipitate was measured by a gamma counter.
Each additive was added to the pharmaceutical composition in amounts of 0.5%, 1.0%, 10% and 50% with respect to the total weight of the preparation.
The bioavailability was determined by comparing the AUC after nasal administration with the AUC after subcutaneous administration.

in vivo = conditions: male, SD (Crj: CD), rat, plasma
Procedure: as §1
Male SD rats, aged 7 to 9 weeks and weighing about 250 g (Crj: CD, Charles River Japan Inc.,), were kept in a metal cage with a day/night cycle of 12 hours while maintaining the temperature at 22±5° C. and the humidity at 30 to 70%. The rats were allowed to feed freely on solid feed and tap water and were fasted for 24 hours prior to the test (3 animals per group).
[…] The blood was collected into a tube containing anticoagulant and enzyme inhibitor at 0, 5, 10, 15, 20, 30, 60, and 90 minutes after administration and was centrifuged to obtain plasma. […] For subcutaneous administration, the sample solution for subcutaneous administration (about 15 μg/mL) was subcutaneously administered in the back of the rats using a syringe at a dosage of 1 mL/kg.

[3] = Absorbability of powder preparation for nasal administration using dogs (RIA); conditions: beagle, dog, in vivo, 50 ug/kg
Procedure: as §1
As a control, one additive-free sample of the composition for nasal administration was prepared.

Exendin-4
blood glucose level (Mean) (blood glucose level; composition: 5% corn starch): 151 mg/dL | blood glucose level (Mean) (blood glucose level; composition: No additive): 166 mg/dL

casein
isoelectric point (pI) [1]: about 4.6

CC[C@H](C)[C@H](NC(=O)[C@H](Cc1ccccc1)NC(=O)[C@H](CCC(=O)O)NC(=O)[C@H](CCCCN)NC(=O)[C@H](C)NC(=O)[C@H](C)NC(=O)[C@H](CCC(N)=O)NC(=O)CNC(=O)[C@H](CCC(=O)O)NC(=O)[C@H](CC(C)C)NC(=O)[C@H](Cc1ccc(O)cc1)NC(=O)[C@H](CO)NC(=O)[C@H](CO)NC(=O)[C@@H](NC(=O)[C@H](CC(=O)O)NC(=O)[C@H](CO)NC(=O)[C@@H](NC(=O)[C@H](Cc1ccccc1)NC(=O)[C@@H](NC(=O)CNC(=O)[C@H](CCC(=O)O)NC(=O)[C@H](C)NC(=O)[C@@H](N)Cc1c[nH]cn1)[C@@H](C)O)[C@@H](C)O)C(C)C)C(=O)N[C@@H](C)C(=O)N[C@@H](Cc1c[nH]c2ccccc12)C(=O)N[C@@H](CC(C)C)C(=O)N[C@H](C(=O)N[C@@H](CCCCN)C(=O)NCC(=O)N[C@@H](CCCNC(=N)N)C(N)=O)C(C)C [GLP-1(7-36)NH2, GLP-1 (7-36)NH2]
AUC(0-inf) [2]: 3.23 ± 0.5 ng·h/mL | Cmax [2]: 6.37 ± 2.54 ng/mL | AUC (in vivo; inhaled or intranasal, 1 ug/kg): 2.47 ± 1.44 ng·h/mL | Cmax (in vivo; inhaled or intranasal, 1 ug/kg): 4.7 ± 3.28 ng/mL | AUC (in vivo; sc, 15 ug/kg): 3.82 ± 0.58 ng·h/mL | Cmax (in vivo; sc, 15 ug/kg): 6.68 ± 0.86 ng/mL | AUC(0-inf) [3]: 5.15 ± 5.13 ng·h/mL | Cmax [3]: 20.4 ± 3.48 ng/mL

GLP-1 (7-37) [GLP-1(7-37)]
blood glucose level (Mean) (blood glucose level; composition: 5% corn starch): 146 mg/dL | blood glucose level (Mean) (blood glucose level; composition: No additive): 170 mg/dL

[Lys^26, ε-NH{γ-Glu(N-α-palmitoyl)}]-GLP-1 (7-37)
blood glucose level (Mean) (blood glucose level; composition: 5% corn starch): 154 mg/dL | blood glucose level (Mean) (blood glucose level; composition: No additive): 184 mg/dL

[Val^8]-GLP-1 (7-37) (HVEGTFTSDVSSYLEGQAAKEFIAWLVKGRG; Glucagon-like peptide 1(7-37); UniProt P01275 98-128, looked up, variant A8V) [[Val^8]-GLP-1(7-37)]
blood glucose level (Mean) (blood glucose level; composition: 5% corn starch): 147 mg/dL | blood glucose level (Mean) (blood glucose level; composition: No additive): 168 mg/dL
